Assays:
[1] = test system: aged wild type (WT; C57BL/6) mice; assay: Radial Arm Water Maze (RAWM); format: in vivo, mouse; conditions: 10 mg/kg PO daily, after 29 days of treatment
Description: The water maze (see, e.g. Alamed J, et al., Two-day radial-arm water maze learning and memory tasks; robust resolution of amyloid-related memory deficits in transgenic mice, Nat. Protoc., 1(4):1671-79 (2006)), was filled with water at least 24 hours prior to the test to equilibrate to 25° C. The water was dyed with white latex paint to make the animals visible for tracking and to allow for the use of a hidden platform. Eight distinct visual cues were placed at the end of each of eight arms of the RAWM inserts. On day 1 animals were subjected to 5 trials each with a visible platform and a 30-minute inter-trial interval. Animals had 60 seconds to reach the platform. […] The goal arm remained constant, and a different start arm was randomly assigned for each of the 5 trials so that mouse started in every arm once except for the two arms directly across from the platform. The goal arm was switched after every two mice and balanced between all treatment groups. After each trial the mice were placed in an empty cage with blue pads and allowed to dry off under a heat lamp before being placed back into their home cage. Testing day was 48 hours after training, when animals were subjected to the same test of 5 trials each and a 30-minute inter-trial interval, but with a hidden platform. Animals were scored for the number of errors (entry into a non-goal arm) and for latency to reach the platform. All trials were recorded using ANY-maze software.
Three independent cohorts of aged wild type (WT; C57BL/6) mice between twenty to twenty-two months of age (20-22 mo) were homogenized into two (2) groups by body weight, total distance travelled in the open field test, and average velocity in the open field test. Group 1 was administered vehicle control PO daily. Group 2 was administered 10 mg/kg of the LTA4H inhibitor Compound 1 PO daily. Both groups were dosed for either 10 days or 4 weeks daily. Behavioral assays were run during the last week of dosing and animals were sacrificed at the end of the study for histological and molecular assays.

[2] = test system: LTA4H hydrolysis activity in mouse whole blood; assay: Ex Vivo LTB4 Assay, mouse blood; format: cell-based; conditions: mouse whole blood incubated with compound
Description: Whole blood was incubated with Compound 1 or vehicle and then a calcium ionophore (Calcimycin, A23187), or 10% DMSO. LTB4 levels in plasma were measured using ELISA.
FIGS. 36-37 report the results of ex vivo target engagement assays with Compound 1 in human and mouse plasma. Whole blood from human or mouse was incubated with vehicle or Compound 1, following by a calcium ionophore stimulation. Plasma was generated and LTB4 levels were measured using ELISA. LTB4 is the product of LTA4H hydrolysis so this assay reports on LTA4H enzymatic activity.

[3] = test system: aged C57BL6 mice; assay: Inverted Wire Hang; format: in vivo, mouse; conditions: 12 days of dosing
Description: Mice were brought into the experimental room for at least 20 minutes of acclimation to the experimental room conditions (bright lighting) prior to testing. Each mouse was placed in the center of the grid. Then swiftly in one continuous motion the grid was inverted 180 degrees to suspend the mouse upside down with their nose being the last part of the mouse to be suspended. The timer was started once the mouse was completely suspended and time to fall was recorded. Mice were tested 3 times with no rest period between each test with a maximum suspension time of 120 seconds. The maximum and average time to fall were scored for each animal.

[4] = test system: aged mice; assay: LPS model of blood-brain-barrier (BBB) leakiness; format: in vivo, mouse
Description: FIGS. 63-66 report the results of an in vivo model of blood-brain-barrier (BBB) leakiness. Aged mice were treated for 4 weeks with vehicle or Compound 1 followed by an acute high dose of LPS was used to induce BBB breakdown. Sodium fluorescein was injected by tail vein and leakiness of sodium fluorescein into the brain was measured using a fluorescent plate reader. FIG. 63 reports that LPS induced BBB breakdown in young and aged mice. […] (n=69, 57)). FIG. 65 reports the GFAP intensity across a 60 micron (μm) long line drawn across the large descending vessels of the CA1 hippocampus after 4 weeks of dosing with vehicle or Compound 1 followed by a high dose LPS to induced BBB breakdown. (Mixed effects analysis with repeated measures. (n=69, 57)). FIG. 66 reports the results of in vivo target engagement assays with Compound 1 in mouse plasma. Whole blood from mice dosed with Compound 1 for 4 weeks followed by high dose LPS was incubated with a calcium ionophore to stimulate LTB4 release. Plasma was generated and LTB4 levels were measured using ELISA. LTB4 is the product of LTA4H hydrolysis so this assay reports on LTA4H enzymatic activity. […] (Kruskal-Wallis test with Dunn's multiple comparisons with post-hoc Mann-Whitney test. ****p<0.0001 (n=8, 9, 8, 9)).

[5] = test system: hippocampal neurons of aged C57BL/6 mice; assay: Single cell RNA sequencing of NeuN+ hippocampal nuclei (CA1, DG); format: in vivo, mouse
Description: Aged C57BL/6 mice (21 months of age) were treated for 1 month bid po with vehicle, 1 mg/kg Compound 1, or 2.5 mg/kg SC57461A (n=3 mice per treatment group). NucSeq For Mouse Brain Tissue protocol from 10× Genomics was used to isolate mouse hippocampus nuclei. Approximately 65 mg of brain tissue were used per treatment. Nonidet P40 was used to lyse cell walls and isolated nuclei were stained with Draq5 and NeuN antibodies for FACS sorting. Approximately 5,000 nuclei were collected for each sample. Eight samples were collected for each treatment for a total of 40,000 nuclei per treatment. These samples were prepped for sequencing using the 10× Genomics Chromium Next GEM kit.
GO terms are generated using the g:Profiler Web server (https://bitt.cs.ut.ee/gprofiler) to analyze differential regulated gene lists. Reported are the top 20 gene ontology (GO terms) terms from the biological process category, sorted by significance as determined by P-value. This list was filtered to report significant GO terms that include less than 1000 genes.

[6] = 1 month bid po, 1 mg/kg Compound 1 or 2.5 mg/kg SC57461A

In the case of `O=C(O)C1CCN(Cc2ccc([C@H]3COc4ccccc4O3)cc2)CC1` [Example 1, 1-{4-[(2S)-2,3-dihydro-1,4-benzodioxin-2-yl]benzyl}piperidine-4-carboxylic acid], the “average number of errors during the last trial” value [1] is reported as “significant decreased in number of errors”, the “latency to find the hidden platform, last trial” value [1] is reported as “trend towards a reduction in time to find the platform” and the “number of errors during the training and testing phases” value [1] is reported as “small, but significant improvement in number of errors”. The “LTB4 plasma levels after calcium ionophore stimulation” value [2] was “reduces LTB4 plasma levels to unstimulated levels”, the “maximum hang time in the wire hang test” value [3] was “no change in maximum hang time” and the “LTB4 levels in calcimycin stimulated plasma” value ([4]; 4 weeks of dosing followed by LPS) was “trending reduction”. For the same molecule, the “AQP4 intensity across large descending vessels of CA1 hippocampus” value ([4]; 4 weeks of dosing then high dose LPS) was “trending reduction in AQP4 intensity”, the “LTB4 levels in calcimycin stimulated plasma” value ([4]; 4 weeks of dosing, without LPS) was “significant reduction in LTB4 levels” and the “BBB leakiness (sodium fluorescein in brain)” value ([4]; aged mice, 4 weeks treatment then acute high dose LPS) was “trend towards reduced BBB leakiness”. The “CA1 neuronal gene changes” value [5, 6] was “many significant gene changes to neurons in the CA1 region of the hippocampus”, the “DG neuronal gene changes” value [5, 6] was “many significant gene changes to neurons in the DG region of the hippocampus” and the “Dcc gene expression in the dentate gyrus” value [5, 6] was “upregulation of Dcc gene expression”. For the same molecule, the “Spock3 gene expression in the dentate gyrus” value [5, 6] was “upregulation of Spock3 gene expression”, the “Biological Process GO terms, CA1 hippocampal neurons” value ([5]; long-term treatment) was “changes to “synaptic signaling” and “synaptic organization”” and the “Biological Process GO terms, DG hippocampal neurons” value ([5]; long-term treatment) was “changes to synapses”.

From patent US11957671B2, “Benzodioxane modulators of leukotriene A4 hydrolase (LTA4H) for prevention and treatment of aging-associated diseases” (Alkahest, Inc., priority 2021, dated 2024)
